Patent US20210015134A1, “CONSUMABLES” (Givaudan S.A., priority 2006, published 2021)

Columns and labels:
Format in all cases: in vivo
[1] = test system: sweet sensitive panelists; experiment: Paired comparison of sweetness enhancers in water versus sucrose (Example 4, modified)
Description: Paired Comparisons of Sweetness Enhancers and Mixtures Thereof in Water and 7% Sucrose
Samples of sweetness enhancers were prepared in water or 7% sucrose. One, two or three sweetness enhancers were used in a sample. All samples were presented to panelists at ambient temperature. The sensory evaluation was conducted using a paired comparison method. […] Samples were paired randomly and presented in unidentifiable pairs of two (left and right) to the panelists in random order. The sample on the left was tasted first, followed by rinsing the mouth with water, then tasting the sample on the right. Once completing the sequence, each panelist ranked the pair of samples for sweetness then evaluated samples with respect to one another with the following descriptors (in ascending order): […]

sweet sensitive subjects = experiment: Sweetness quality evaluation (time of onset, localization, duration)
Description: Rebaudioside A (99%+, purified from plant extract, Sweet Aloha Farms, LLC) (1 ppm, 10 ppm, 20 ppm, 30 ppm) in 2% sucrose samples was evaluated for the qualities of the sweetness of the samples (time of onset, localization, duration). The sensory evaluations were conducted as follows. All samples were presented at ambient temperature in 15 ml aliquots and presented blindly to sweet sensitive subjects of varying sweet sensitivity. Subjects tasted the samples and were asked to evaluate the quality of sweetness. Sucrose solutions (2% and 7%) were presented as references.
Rebaudioside A (99%+, purified from plant extract, Sweet Aloha Farms, LLC) (1 ppm, 10 ppm, 20 ppm, 30 ppm) in 7% sucrose samples were evaluated for the qualities of the sweetness of the samples (time of onset, localization, duration). The sensory evaluations were conducted as follows. All samples were presented at ambient temperature in 15 ml aliquots and presented blindly to sweet sensitive subjects of varying sweet sensitivity. Subjects tasted the samples and were asked to evaluate the quality of the sweetness. Sucrose solutions (2% and 7%) were presented as references to evaluate the sweetness of the rebaudioside A samples.
Stevioside extract (95%+, purified from plant extract, Apin Chemicals) (20 ppm, 30 ppm, 40 ppm, 50 ppm) was evaluated in 2% sucrose for the qualities of the sweetness of the samples (time of onset, localization, duration). The sensory evaluations were conducted as follows. All samples were presented at ambient temperature in 15 ml aliquots and presented blindly to sweet sensitive subjects of varying sweet sensitivity. Subjects tasted the samples and were asked to evaluate the sweetness qualities. Sucrose solutions (2% and 7%) were presented as references.
Stevioside (20 ppm, 30 ppm, 40 ppm, 50 ppm) was evaluated in 7% sucrose for the qualities of the sweetness of the samples (time of onset, localization, duration). The sensory evaluations were conducted as follows. All samples were presented at ambient temperature in 15 ml aliquots and presented blindly to sweet sensitive subjects of varying sweet sensitivity. Subjects tasted the samples and were asked to evaluate the sweetness qualities. Sucrose solutions (2% and 7%) were presented as references to evaluate the sweetness of the stevioside samples.

[2] = test system: sweet sensitive panelists; experiment: Comparative sensory evaluation of sweetness enhancers in sweetener solution or water (Example 1)
Description: Comparative sensory evaluation of sweetness enhancers in 2 or 7% sucrose
The test samples contained the potential sweetness enhancers in 0% sucrose (water), 2% sucrose, or 7% sucrose, and control samples of 0%, 2% and 7% sucrose without any additive. The sensory evaluations were conducted as follows. All samples were presented at ambient temperature in 15 ml aliquots to panels consisting of 5-9 sweet sensitive subjects of varying sweet sensitivity. After tasting each sample, the mouth was rinsed thoroughly with water at ambient temperature prior to tasting the next sample. The sucrose positive control (2% or 7%) was presented first and served as the sweetness reference to which all sweetness enhancer/sucrose combinations were directly compared.
One tasting sequence included tasting the sucrose control first, rinsing with water, tasting the sweetness enhancer/sucrose sample, rinsing with water followed by tasting the sucrose control again. Once the sequence was completed, each panelist chose the sample which was sweeter and evaluated the sweetness of each sample relative to one another.
In a second tasting sequence, this same procedure was followed for the water negative control versus the sweetness enhancer/water samples to determine the sweet taste due to the sweetness enhancer itself at each tested concentration.
Panelists evaluated the sweetness of the sweetness enhancer in water for each concentration. For their evaluation, panelists were allowed to compare any perceived sweetness of the sweetness enhancer to the 2% or 7% sucrose control to determine the relative intensity of sweetness. Mild sweet taste corresponds to the taste of 2% sucrose, strong sweet taste corresponds to the taste of 7% sucrose.
Alternatively to sucrose, the evaluation may be performed with another sweetener, for example, high fructose (55%) corn syrup (HFCS, containing 55% fructose and 45% glucose), erythritol, sucralose, aspartame, or acesulfame potassium (AceK).

## C=C1C[C@@]23CC[C@H]4[C@@](C)(CCC[C@@]4(C)C(=O)O[C@@H]4O[C@H](CO)[C@@H](O)[C@H](O)[C@H]4O)[C@@H]2CC[C@]1(O[C@@H]1O[C@H](CO)[C@@H](O)[C@H](O)[C@H]1O[C@@H]1O[C@H](CO)[C@@H](O)[C@H](O)[C@H]1O)C3 [Stevioside]
[1]; 20 ppm in water vs 0% sucrose
  Result of comparison: weakly sweeter
[1]; 20 ppm in water vs 0.5% sucrose
  Result of comparison: notably less sweet
[1]; 30 ppm in water
  isointensity to sucrose solution: 0.5 % sucrose
[1]; 30 ppm in water vs 0% sucrose
  Result of comparison: weakly sweeter
[1]; 30 ppm in water vs 0.5% sucrose
  Result of comparison: isosweet
[1]; 30 ppm in water vs 1% sucrose
  Result of comparison: significantly less sweet
[1]; 40 ppm in water vs 0.5% sucrose
  Result of comparison: notably sweeter
[1]; 40 ppm in water vs 1% sucrose
  Result of comparison: less sweet
[1]; 40 ppm in water, by interpolation
  isointensity to sucrose solution: 0.75 % sucrose
[1]; 50 ppm in water
  isointensity to sucrose solution: 1 % sucrose
[1]; 50 ppm in water vs 0.5% sucrose
  Result of comparison: sweeter
[1]; 50 ppm in water vs 1% sucrose
  Result of comparison: isosweet
[1]; 50 ppm in water vs 1.5% sucrose
  Result of comparison: significantly less sweet
[1]; 60 ppm in water vs 1% sucrose
  Result of comparison: notably sweeter
[1]; 60 ppm in water vs 1.5% sucrose
  Result of comparison: less sweet
[1]; 60 ppm in water, by interpolation
  isointensity to sucrose solution: 1.25 % sucrose
Sweet sensitive subjects; 20 ppm in 2% sucrose
  Sensory evaluation of sweetness intensity (onset, localisation, duration): immediate onset, full mouth sweet, not lingering
Sweet sensitive subjects; 20 ppm in 7% sucrose
  Sensory evaluation of sweetness intensity (onset, localisation, duration): immediate onset, full mouth sweet, not lingering
Sweet sensitive subjects; 30 ppm in 2% sucrose
  Sensory evaluation of sweetness intensity (onset, localisation, duration): immediate onset, full mouth sweet, not lingering
Sweet sensitive subjects; 30 ppm in 7% sucrose
  Sensory evaluation of sweetness intensity (onset, localisation, duration): immediate onset, full mouth sweet, not lingering
Sweet sensitive subjects; 40 ppm in 2% sucrose
  Sensory evaluation of sweetness intensity (onset, localisation, duration): immediate onset, full mouth sweet, not lingering
Sweet sensitive subjects; 40 ppm in 7% sucrose
  Sensory evaluation of sweetness intensity (onset, localisation, duration): immediate onset, full mouth sweet, not lingering
[2]; 20 ppm in 2% sucrose
  Sensory evaluation of sweetness intensity: notably sweeter than sucrose control
[2]; 20 ppm in 7% sucrose
  Sensory evaluation of sweetness intensity: notably sweeter than sucrose control
[2]; 20 ppm in water (Example 9A)
  Sensory evaluation of sweetness intensity: barely detectable sweetness
[2]; 20 ppm in water (Example 9B)
  Sensory evaluation of sweetness intensity: barely detectable sweetness
[2]; 30 ppm in 2% sucrose
  Sensory evaluation of sweetness intensity: much sweeter than sucrose control
[2]; 30 ppm in 7% sucrose
  Sensory evaluation of sweetness intensity: notably sweeter than sucrose control
[2]; 30 ppm in water (Example 9A)
  Sensory evaluation of sweetness intensity: very weak, late onsetting sweetness
[2]; 30 ppm in water (Example 9B)
  Sensory evaluation of sweetness intensity: very weak, late onsetting sweetness
[2]; 40 ppm in 2% sucrose
  Sensory evaluation of sweetness intensity: much sweeter than sucrose control
[2]; 40 ppm in 7% sucrose
  Sensory evaluation of sweetness intensity: much sweeter than sucrose control
[2]; 40 ppm in water (Example 9A)
  Sensory evaluation of sweetness intensity: weak late onsetting sweetness
[2]; 40 ppm in water (Example 9B)
  Sensory evaluation of sweetness intensity: weak sweetness, late onsetting sweetness
[2]; 50 ppm in 2% sucrose
  Sensory evaluation of sweetness intensity: much sweeter than sucrose control
[2]; 50 ppm in 7% sucrose
  Sensory evaluation of sweetness intensity: much sweeter than sucrose control
[2]; 50 ppm in water (Example 9A)
  Sensory evaluation of sweetness intensity: weak sweetness, faster onset than 40 ppm,
[2]; 50 ppm in water (Example 9B)
  Sensory evaluation of sweetness intensity: weak sweetness, faster onset than 40 ppm,
[2]; 60 ppm in 2% sucrose
  Sensory evaluation of sweetness intensity: substantially sweeter than sucrose control
[2]; 60 ppm in 7% sucrose
  Sensory evaluation of sweetness intensity: substantially sweeter than sucrose control
[2]; 60 ppm in water (Example 9A)
  Sensory evaluation of sweetness intensity: weak sweetness, faster onset than 50 ppm,
[2]; 60 ppm in water (Example 9B)
  Sensory evaluation of sweetness intensity: weak sweetness, faster onset than 50 ppm,
